Patent publication US11760889B2, “Unsaturated fatty alcohol derivatives from natural oil metathesis” (priority 2012, dated 2023)
Read-outs that look alike come from different tables or passages of the source.

Key:
[1] = Anionic emulsifier: emulsion stability testing of EW concentrate (modified ASTM E1116-98)
Procedure: Turbidity changes are noted and recorded.
A Mohr pipette is used to feed EW concentrate to each cylinder. Cylinders are stoppered and inverted ten times, then allowed to stand for 0.5, 1, and 24 h while recording stability at each time as type and % separation.
Spontaneity is recorded according to the following criteria: (1) poor: very thin emulsion cloud with major separation of oil droplets; (2) fair: thin emulsion cloud with minor separation of oil droplets; (3) good: thin emulsion cloud reaches the bottom of the cylinder without separation of any type; (4) excellent: thick emulsion cloud reaches the bottom of the cylinder without separation of any type.

[2] = Water-soluble herbicide formulation testing (standard dilution test, emulsion stability); format: physicochemical; design: key to Emulsion stability, mL separation, 24 h: Tr = trace; conditions: 342 ppm water;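 further: diluted in a 50 mL Nessler cylinder held at 30 °C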
Procedure: Surfactant candidates for water soluble herbicide applications are examined as a replacement for the anionic, nonionic, or anionic/nonionic blend portion and compared to a known industry adjuvant standard for use in paraquat, a water soluble herbicide concentrate formulation. A standard dilution test is conducted whereby the concentrates are diluted in water to determine if solubility is complete.
The cylinder is stoppered and inverted ten times. Solubility is recorded as complete or incomplete. Cylinders are allowed to stand and the amount (in mL) and type of separation are recorded after 30 min., 1 h, 2 h, and 24 h. Results of the solubility testing appear in Table 3 below.
An eight to ten mole alkyl phenol ethoxylate surfactant (0.7 g) is added and vigorously mixed for 30 s. Test sample (0.7 g) is added and mixing resumes for 30 s.
Test sample (0.7 g) is added and vigorously mixed for 30 s. Sodium linear alkylbenzene sulfonate (“NaLAS,” 0.7 g) is added and mixing resumes for 30 s.

[3] = Surfactant phase behavior study (cross-polarized microscopy); format: physicochemical; conditions: room temperature (20-22° C.)
Procedure: Phase behavior is observed using an Olympus BH-2 cross-polarized microscope at 100-400× and room temperature (20° C. to 22° C.). The inventive monounsaturated sulfates and ethoxylate sulfates are compared with their saturated analogs, and in some cases, commercial surfactants.
Samples are prepared by diluting the most concentrated product gradually with deionized water. When the surfactant concentration approaches a phase transition, the concentration is varied at 2-4% intervals to estimate the phase boundary. The actives level reported in Table 15 for each phase boundary is within ±5% of the true boundary.
Samples are loaded between a microscope slide and cover glass and are allowed to equilibrate before observation. Microscopic texture is analyzed and used to determine the phase. For some samples, an AR 2000 rheometer (TA Instruments) is used to measure viscosity at 25° C. to further verify phase behavior.

[4] = Emulsion polymerization surfactant screen
Procedure: A reaction kettle is charged with sodium bicarbonate (0.50 g), water (225 g), and seed latex (30 g) and the mixture is heated to and held at 83° C. under nitrogen with stirring at 200 rpm. […] Methyl methacrylate (255 g), butyl acrylate (235 g), and methacrylic acid (10 g) are combined in an Erlenmeyer flask and mixed. […] Separately, two other mixtures are prepared: an initiator shot mixture of ammonium persulfate (1.0 g) in water (20 g), and a cofeed mixture of ammonium persulfate (2.70 g), sodium bicarbonate (1.50 g), and water (75 g); the total amount of initiator used is 0.74% based on monomers. The initiator shot is charged to the 83° C. reaction kettle dropwise over 1 min, then held for 10 min. The monomer emulsion is then fed to the kettle at 2.1 mL/min. for 10 min. The feed rate of the monomer emulsion is increased to 4.2 mL/min., and the cofeed mixture is started at 0.37 mL/min. Total addition time is 3 h, during which particle size and temperature are monitored. After addition of the monomer emulsion is complete, a water wash (50 g) is started, and heating at 83° C. continues for 1 h. The product is cooled. The pH is adjusted to 7.5 with dilute ammonium hydroxide solution. A preservative is added, and the mixture is filtered.

[5] = Adjuvant (anionic/nonionic) test sample

| Molecule | % Separation, 1 h ([1]; 34 ppm water) [%] | % Separation, 24 h ([1]; 34 ppm water) [%] | % Separation, 1 h ([1]; 1000 ppm water) [%] | % Separation, 24 h ([1]; 1000 ppm water) [%] | Emulsion stability, mL separation, 1 h [2, 5] [mL] | Emulsion stability, mL separation, 24 h [2, 5] | Emulsion stability, mL separation, 1 h ([2]; Anionic test sample) [mL] | Emulsion stability, mL separation, 24 h ([2]; Anionic test sample) [mL] | Emulsion stability, mL separation, 1 h ([2]; Nonionic test sample) [mL] | Emulsion stability, mL separation, 24 h ([2]; Nonionic test sample) | Estimated Phase Region: Hexagonal [3] | Estimated Phase Region: Isotropic Clear [3] | Estimated Phase Region: Lamellar [3] | Estimated Phase Region: Solid/gum/paste [3] | Estimated Phase Region: Unknown [3] | pre-emulsion stability [4] | pre-emulsion stability ([4]; surfactant level in EP 0.50%) | Estimated Phase Region: Cubic [3] |
| --- | --- | --- | --- | --- | --- | --- | --- | --- | --- | --- | --- | --- | --- | --- | --- | --- | --- | --- |
| C=CCCCCCCCCOS(=O)(=O)[O-].[Na+] [A10-3] | 4 | 4 | 3 | 3.1 | 0 | 0 mL | 0 | 0 | 0 | Tr | 43-70 % actives | 0-43 % actives | 70-81 % actives | 81-100 % actives | – | – | – | – |
| C=CCCCCCCCCOS(=O)(=O)O.N [A10-2] | 3.8 | 4 | 3.1 | 3.8 | 0 | 0 mL | 0 | 0 | 0 | Tr | 42-64 % actives | – | 64-80 % actives | 80-100 % actives | 0-42 % actives | – | – | – |
| calcium alkylbenzenesulfonate [Control 1] | – | – | – | – | – | – | – | – | – | – | – | – | – | – | – | stable | – | – |
| C12 Alcohol Sodium Sulfate [A12-3] | 4.5 | 5.7 | 3 | 4 | 0 | Tr | 0 | 0 | 0 | Tr | 38-66 % actives | 0-38 % actives | 66-83 % actives | 83-100 % actives | – | – | stable | – |
| CCCCCCCCCCCCOS(=O)(=O)[O-].[Na+] [sat. analog of A12-3, reference compound] | – | – | – | – | – | – | – | – | – | – | – | 0-31 % actives | – | 31-100 % actives | – | – | – | – |
| CCCCCCCCCCCCOCCOCCOCCOS(=O)(=O)[O-].[Na+] [sat. analog of A12-9, reference compound] | – | – | – | – | – | – | – | – | – | – | 24-60 % actives | 0-24 % actives | 60-78 % actives | 78-100 % actives | – | – | – | – |
| CCCCCCCCCCCCOS(=O)(=O)O.N [sat. analog of A12-2, reference compound] | – | – | – | – | – | – | – | – | – | – | 31-63 % actives | 0-31 % actives | 63-74 % actives | 74-100 % actives | – | – | – | – |
| C12 Alcohol Ammonium Sulfate [A12-2] | 4 | 4.2 | 2.5 | 3.2 | – | – | – | – | – | – | 33-70 % actives | 0-33 % actives | 70-83 % actives | 83-100 % actives | – | – | – | – |
| 3 Mole Ethoxylated C12 Alcohol, Sodium Sulfate [A12-9] | 3.3 | 4.2 | 2.1 | 3 | 0 | 0 mL | 0 | 0 | 0 | 0 mL | 31-60 % actives | 0-31 % actives | 68-87 % actives | 87-100 % actives | – | – | – | 60-68 % actives |
